Measurements taken from PubChem BioAssay (NCI).
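A five-concentration, 48-hour dose response in 96-well plates underlies each endpoint, interpolated linearly between surrounding concentrations. GI50 marks 50% less growth. Definition used: TGI = concentration required for complete inhibition of growth.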

Key:
Assay in all cases: inhibition of tumour cell growth, NCI panel, 48 h; in the data active means GI50 below about 0.43 µM; inactive means the rest
NCI-H460 lung = tested on: NCI-H460 lung
LOX IMVI melanoma = tested on: LOX IMVI melanoma
SF-268 CNS = tested on: SF-268 CNS
CAKI-1 renal = tested on: CAKI-1 renal
UACC-62 melanoma = tested on: UACC-62 melanoma
UACC-257 melanoma = tested on: UACC-257 melanoma
SN12C renal = tested on: SN12C renal
CCRF-CEM leukemia = tested on: CCRF-CEM leukemia
ACHN renal = tested on: ACHN renal
HL-60(TB) leukemia = tested on: HL-60(TB) leukemia
T-47D breast = tested on: T-47D breast
SNB-19 CNS = tested on: SNB-19 CNS
A549 NSCLC = tested on: A549 NSCLC
SW-620 colon = tested on: SW-620 colon
TK-10 renal = tested on: TK-10 renal
UO-31 renal = tested on: UO-31 renal
OVCAR-8 ovarian = tested on: OVCAR-8 ovarian
MCF7 breast = tested on: MCF7 breast
NCI-H226 lung = tested on: NCI-H226 lung
SK-MEL-5 melanoma = tested on: SK-MEL-5 melanoma
OVCAR-4 ovarian = tested on: OVCAR-4 ovarian
EKVX NSCLC = tested on: EKVX NSCLC
RPMI-8226 leukemia = tested on: RPMI-8226 leukemia
K-562 leukemia = tested on: K-562 leukemia
HCT-15 colon = tested on: HCT-15 colon
A498 renal = tested on: A498 renal
MOLT-4 leukemia = tested on: MOLT-4 leukemia
SNB-75 CNS = tested on: SNB-75 CNS
COLO 205 colon = tested on: COLO 205 colon
RXF 393 renal = tested on: RXF 393 renal
SR leukemia = tested on: SR leukemia
SF-295 CNS = tested on: SF-295 CNS
BT-549 breast = tested on: BT-549 breast
786-0 renal = tested on: 786-0 renal
NCI/ADR-RES ovarian = tested on: NCI/ADR-RES ovarian
HT29 colon = tested on: HT29 colon
KM12 colon = tested on: KM12 colon
SF-539 CNS = tested on: SF-539 CNS
NCI-H23 lung = tested on: NCI-H23 lung
MDA-MB-435 = tested on: MDA-MB-435
HS 578T breast = tested on: HS 578T breast
HOP-62 NSCLC = tested on: HOP-62 NSCLC
OVCAR-3 ovarian = tested on: OVCAR-3 ovarian
M14 melanoma = tested on: M14 melanoma
MALME-3M melanoma = tested on: MALME-3M melanoma
SK-MEL-2 melanoma = tested on: SK-MEL-2 melanoma
IGROV1 ovarian = tested on: IGROV1 ovarian
PC-3 prostate = tested on: PC-3 prostate
SK-MEL-28 melanoma = tested on: SK-MEL-28 melanoma
HOP-92 NSCLC = tested on: HOP-92 NSCLC
NCI-H522 lung = tested on: NCI-H522 lung
SK-OV-3 ovarian = tested on: SK-OV-3 ovarian
HCT-116 colon = tested on: HCT-116 colon
OVCAR-5 ovarian = tested on: OVCAR-5 ovarian
DU-145 prostate = tested on: DU-145 prostate
MDA-MB-231 breast = tested on: MDA-MB-231 breast
U251 CNS = tested on: U251 CNS
HCC-2998 colon = tested on: HCC-2998 colon

COc1nc(N)nc2c1ncn2C1CC(O)C(CO)O1 (configuration not stated)
> 100 µM: TGI (NCI-H460 lung) | TGI (LOX IMVI melanoma) | TGI (SF-268 CNS) | TGI (CAKI-1 renal) | TGI (UACC-62 melanoma) | TGI (UACC-257 melanoma) | TGI (SN12C renal) | TGI (CCRF-CEM leukemia) | TGI (ACHN renal) | TGI (HL-60(TB) leukemia) | TGI (T-47D breast) | TGI (SNB-19 CNS) | TGI (A549 NSCLC) | TGI (SW-620 colon) | TGI (TK-10 renal) | TGI (UO-31 renal) | TGI (OVCAR-8 ovarian) | TGI (MCF7 breast) | TGI (NCI-H226 lung) | TGI (SK-MEL-5 melanoma) | TGI (OVCAR-4 ovarian) | TGI (EKVX NSCLC) | TGI (RPMI-8226 leukemia) | TGI (K-562 leukemia) | TGI (HCT-15 colon) | TGI (A498 renal) | TGI (MOLT-4 leukemia) | TGI (SNB-75 CNS) | TGI (COLO 205 colon) | TGI (RXF 393 renal) | TGI (SR leukemia) | TGI (SF-295 CNS) | TGI (BT-549 breast) | TGI (786-0 renal) | TGI (NCI/ADR-RES ovarian) | TGI (HT29 colon) | TGI (KM12 colon) | TGI (SF-539 CNS) | TGI (NCI-H23 lung) | TGI (MDA-MB-435) | TGI (HS 578T breast) | TGI (HOP-62 NSCLC) | TGI (OVCAR-3 ovarian) | TGI (M14 melanoma) | TGI (MALME-3M melanoma) | TGI (SK-MEL-2 melanoma) | TGI (IGROV1 ovarian) | TGI (PC-3 prostate) | TGI (SK-MEL-28 melanoma) | TGI (HOP-92 NSCLC) | TGI (NCI-H522 lung) | TGI (SK-OV-3 ovarian) | TGI (HCT-116 colon) | TGI (OVCAR-5 ovarian) | TGI (DU-145 prostate) | TGI (MDA-MB-231 breast) | TGI (U251 CNS)

COc1ccc2c(c1)CCC1C2CC[C@@]2(C)C1CC[C@@H]2NC(=O)Cc1ccc(O)c(O)c1 (some centres not stated)
inactive: GI50 (NCI-H460 lung) 12.3 µM | GI50 (LOX IMVI melanoma) 8.15 µM | GI50 (SF-268 CNS) 7.48 µM | GI50 (CAKI-1 renal) 8.53 µM | GI50 (UACC-62 melanoma) 4.14 µM | GI50 (UACC-257 melanoma) 17 µM | GI50 (SN12C renal) 5.79 µM | GI50 (CCRF-CEM leukemia) 2.86 µM | GI50 (ACHN renal) 6.01 µM | GI50 (T-47D breast) 6.91 µM | GI50 (SNB-19 CNS) 13.3 µM | GI50 (A549 NSCLC) 14.6 µM | GI50 (SW-620 colon) 6.41 µM | GI50 (TK-10 renal) 8.86 µM | GI50 (UO-31 renal) 3.56 µM | GI50 (OVCAR-8 ovarian) 8.71 µM | GI50 (MCF7 breast) 11.2 µM | GI50 (NCI-H226 lung) 10.1 µM | GI50 (SK-MEL-5 melanoma) 8.96 µM | GI50 (OVCAR-4 ovarian) 4.26 µM | GI50 (HCC-2998 colon) 13.4 µM | GI50 (EKVX NSCLC) 13.5 µM | GI50 (RPMI-8226 leukemia) 3.68 µM | GI50 (K-562 leukemia) 4.31 µM | GI50 (HCT-15 colon) 3.74 µM | GI50 (A498 renal) 18.8 µM | GI50 (MOLT-4 leukemia) 2.76 µM | GI50 (SNB-75 CNS) 3.44 µM | GI50 (COLO 205 colon) 3.34 µM | GI50 (RXF 393 renal) 10.7 µM | GI50 (SR leukemia) 3.46 µM | GI50 (SF-295 CNS) 13.4 µM | GI50 (BT-549 breast) 9.66 µM | GI50 (786-0 renal) 5 µM | GI50 (NCI/ADR-RES ovarian) 10.7 µM | GI50 (HT29 colon) 10.3 µM | GI50 (KM12 colon) 5.47 µM | GI50 (SF-539 CNS) 4.84 µM | GI50 (NCI-H23 lung) 11.9 µM | GI50 (MDA-MB-435) 4.63 µM | GI50 (HS 578T breast) 7.22 µM | GI50 (OVCAR-3 ovarian) 3.7 µM | GI50 (MALME-3M melanoma) 9.13 µM | GI50 (SK-MEL-2 melanoma) 15.2 µM | GI50 (IGROV1 ovarian) 2.29 µM | GI50 (PC-3 prostate) 6.3 µM | GI50 (SK-MEL-28 melanoma) 9.9 µM | GI50 (HOP-92 NSCLC) 14.2 µM | GI50 (NCI-H522 lung) 1.9 µM | GI50 (SK-OV-3 ovarian) 16.7 µM | GI50 (HCT-116 colon) 3.53 µM | GI50 (OVCAR-5 ovarian) 19.8 µM | GI50 (DU-145 prostate) 8.47 µM | GI50 (MDA-MB-231 breast) 4.05 µM | GI50 (U251 CNS) 4.94 µM
33.8 µM: TGI (SK-MEL-2 melanoma)
18.7 µM: TGI (SR leukemia)
83 µM: TGI (MOLT-4 leukemia)
16.7 µM: TGI (HCT-15 colon)
24.2 µM: TGI (SK-MEL-28 melanoma)
31.9 µM: TGI (NCI-H460 lung)
72.8 µM: TGI (T-47D breast)
19.2 µM: TGI (OVCAR-3 ovarian)
12.5 µM: TGI (SNB-75 CNS) | TGI (COLO 205 colon)
20.6 µM: TGI (LOX IMVI melanoma)
29.9 µM: TGI (A549 NSCLC)
25.5 µM: TGI (BT-549 breast)
25 µM: TGI (SW-620 colon)
43.9 µM: TGI (HS 578T breast)
21.8 µM: TGI (SK-MEL-5 melanoma)
19.6 µM: TGI (SN12C renal)
17.2 µM: TGI (MDA-MB-435)
17.7 µM: TGI (786-0 renal)
18.9 µM: TGI (ACHN renal) | TGI (HCT-116 colon)
17.6 µM: TGI (CCRF-CEM leukemia)
20.8 µM: TGI (DU-145 prostate)
35.3 µM: TGI (NCI-H226 lung)
17.3 µM: TGI (SF-539 CNS)
4.25 µM: TGI (NCI-H522 lung)
32.1 µM: TGI (MCF7 breast) | TGI (SF-295 CNS)
15.2 µM: TGI (UO-31 renal)
30.8 µM: TGI (UACC-257 melanoma) | TGI (OVCAR-8 ovarian) | TGI (HOP-92 NSCLC)
22.1 µM: TGI (TK-10 renal)
19.4 µM: TGI (PC-3 prostate)
21.7 µM: TGI (CAKI-1 renal) | TGI (KM12 colon)
41 µM: TGI (MALME-3M melanoma)
28.2 µM: TGI (HCC-2998 colon)
18.8 µM: TGI (U251 CNS)
14.8 µM: TGI (UACC-62 melanoma)
7.68 µM: TGI (IGROV1 ovarian)
37.7 µM: TGI (OVCAR-5 ovarian)
27.3 µM: TGI (RXF 393 renal)
> 100 µM: TGI (RPMI-8226 leukemia) | TGI (K-562 leukemia)
33.4 µM: TGI (SNB-19 CNS) | TGI (SK-OV-3 ovarian)
31.4 µM: TGI (EKVX NSCLC)
33.7 µM: TGI (A498 renal)
16.9 µM: TGI (MDA-MB-231 breast)
18.6 µM: TGI (OVCAR-4 ovarian)
33.6 µM: TGI (NCI/ADR-RES ovarian)
25.3 µM: TGI (SF-268 CNS) | TGI (HT29 colon)
27.6 µM: TGI (NCI-H23 lung)
